One assay has as its target BRAF (Homo sapiens (Human), UniProt P15056). Description: Z′-LYTE kinase inhibition assay (Invitrogen), BRAF. The assay is classed as biochemical. Particulars: 1 μM compound, Z′-LYTE method; read-out: % inhibition at 1 μM against BRAF.
Another assay has as its system A375 cells. Description: Inhibition of cancer cell growth, MTT assay, A375. The assay is classed as cell-based. Particulars: Homo sapiens, A-375, 72 h exposure. The gist of the method:
(§1)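 Cells grown in RPMI 1640 with 10% FBS were seeded at about 4000 cells/well, left 24 h, then exposed to compound for 72 h (1% DMSO final). MTT absorbance at 570 nm was compared with viable cells at time of addition to give growth inhibition; IC50 from concentration–inhibition plots, triplicates.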
For orientation: Tetrazolium assays rely on reduction of a dye to a coloured formazan, in cell work by metabolically active cells.

For the next assay, the target named is KDR (VEGFR2) (Homo sapiens (Human), UniProt P35968). Briefly: Z′-LYTE kinase inhibition assay (Invitrogen), KDR. Particulars: 1 μM compound, Z′-LYTE method; read-out: % inhibition at 1 μM against KDR. The assay is classed as biochemical. A digest of the protocol:
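Z′-LYTE FRET assay: 10 μL reactions with 0.5–11.7 ng KDR and 2 μM Tyr 01 peptide in 50 mM HEPES pH 7.5, 10 mM MgCl2, 1 mM EGTA, 0.01% BRIJ-35, 1 h at room temperature. Development Reagent B (1:256) added for 60 min, fluorescence read; IC50 from concentration–inhibition curves.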

The test system of a further assay is A549 cells. Briefly: Inhibition of cancer cell growth, MTT assay, A549. Type of assay: cell-based. Conditions: Homo sapiens, A549, 72 h exposure. A digest of the protocol: as §1
For another assay, the target named is BRAF V600E (Homo sapiens (Human), UniProt P15056, V600E). Description: Z′-LYTE kinase inhibition assay (Invitrogen), BRAF V600E. The assay is classed as biochemical. Conditions: 1 μM compound, Z′-LYTE method; read-out: % inhibition at 1 μM against BRAF V600E. The gist of the method: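 FRET-based Z′-LYTE peptide phosphorylation format in 50 mM HEPES pH 7.5, 0.01% BRIJ-35, 10 mM MgCl2, 1 mM EGTA with ATP. Kinase reaction 60 min at room temperature, then protease development step 60 min at room temperature before fluorescence read. IC50 from compound concentration versus percent inhibition.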
Chain of BRAF V600E (P15056 whole entry V600E): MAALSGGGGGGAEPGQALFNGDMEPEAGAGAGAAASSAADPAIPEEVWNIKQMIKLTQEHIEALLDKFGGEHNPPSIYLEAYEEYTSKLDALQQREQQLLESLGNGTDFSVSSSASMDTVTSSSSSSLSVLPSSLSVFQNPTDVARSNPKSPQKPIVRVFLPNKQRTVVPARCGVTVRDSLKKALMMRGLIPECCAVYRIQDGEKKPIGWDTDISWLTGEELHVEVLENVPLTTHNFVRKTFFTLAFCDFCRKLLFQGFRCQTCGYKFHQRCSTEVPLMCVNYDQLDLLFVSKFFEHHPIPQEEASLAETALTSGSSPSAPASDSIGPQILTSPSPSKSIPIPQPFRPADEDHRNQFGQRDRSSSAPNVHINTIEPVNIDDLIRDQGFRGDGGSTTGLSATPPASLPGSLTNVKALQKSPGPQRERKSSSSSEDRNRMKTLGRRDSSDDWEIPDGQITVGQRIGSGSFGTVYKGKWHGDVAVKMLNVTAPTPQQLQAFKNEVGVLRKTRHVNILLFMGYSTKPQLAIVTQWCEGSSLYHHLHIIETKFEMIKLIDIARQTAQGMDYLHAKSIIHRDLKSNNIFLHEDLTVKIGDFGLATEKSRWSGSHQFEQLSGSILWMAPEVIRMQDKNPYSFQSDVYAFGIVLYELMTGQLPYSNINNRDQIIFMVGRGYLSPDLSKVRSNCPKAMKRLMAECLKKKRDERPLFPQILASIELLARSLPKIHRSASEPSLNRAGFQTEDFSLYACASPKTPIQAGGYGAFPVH

Chain of BRAF (P15056 whole entry): as the sequence (P15056 whole entry V600E) above, with E600V counted along it
Chain of KDR (VEGFR2) (P35968 20-1356): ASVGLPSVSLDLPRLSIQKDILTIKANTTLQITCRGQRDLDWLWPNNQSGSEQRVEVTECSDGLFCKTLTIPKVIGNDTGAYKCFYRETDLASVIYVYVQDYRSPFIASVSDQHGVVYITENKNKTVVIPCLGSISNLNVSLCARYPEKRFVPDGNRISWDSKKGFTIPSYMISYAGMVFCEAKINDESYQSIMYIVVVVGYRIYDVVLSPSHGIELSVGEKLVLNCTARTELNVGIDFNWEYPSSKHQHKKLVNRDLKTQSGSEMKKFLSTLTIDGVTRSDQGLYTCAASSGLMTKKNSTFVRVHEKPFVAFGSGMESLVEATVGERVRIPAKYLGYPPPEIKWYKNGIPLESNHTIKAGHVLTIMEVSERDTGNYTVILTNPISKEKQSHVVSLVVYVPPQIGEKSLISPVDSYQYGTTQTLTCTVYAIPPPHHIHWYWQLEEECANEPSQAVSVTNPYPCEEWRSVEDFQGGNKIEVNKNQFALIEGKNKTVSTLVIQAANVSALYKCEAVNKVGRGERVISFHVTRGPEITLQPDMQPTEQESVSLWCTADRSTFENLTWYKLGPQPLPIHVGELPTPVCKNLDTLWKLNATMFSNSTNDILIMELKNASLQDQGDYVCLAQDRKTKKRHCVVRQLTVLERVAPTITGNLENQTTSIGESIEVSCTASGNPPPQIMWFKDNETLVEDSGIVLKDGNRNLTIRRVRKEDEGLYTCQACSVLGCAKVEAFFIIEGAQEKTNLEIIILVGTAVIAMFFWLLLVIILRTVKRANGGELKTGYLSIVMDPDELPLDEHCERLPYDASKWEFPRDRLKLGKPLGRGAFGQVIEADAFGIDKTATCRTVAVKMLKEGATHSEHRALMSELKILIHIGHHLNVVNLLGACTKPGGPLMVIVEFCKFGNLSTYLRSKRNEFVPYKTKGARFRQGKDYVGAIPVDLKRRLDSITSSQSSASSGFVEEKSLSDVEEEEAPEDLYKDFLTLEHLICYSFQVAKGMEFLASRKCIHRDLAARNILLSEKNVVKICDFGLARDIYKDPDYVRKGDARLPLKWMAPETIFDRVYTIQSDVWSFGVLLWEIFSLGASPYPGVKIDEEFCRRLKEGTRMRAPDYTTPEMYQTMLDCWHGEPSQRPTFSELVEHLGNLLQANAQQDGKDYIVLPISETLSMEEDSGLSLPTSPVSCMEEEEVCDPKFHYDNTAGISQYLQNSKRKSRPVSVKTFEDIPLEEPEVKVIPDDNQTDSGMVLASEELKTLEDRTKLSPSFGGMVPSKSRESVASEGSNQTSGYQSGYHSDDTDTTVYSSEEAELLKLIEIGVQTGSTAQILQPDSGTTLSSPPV

The term inhibition denotes the drop in the measured response relative to a control, in per cent. In general, IC50 refers to the concentration needed to halve the response being measured. For the compound `O=C(Nc1cc(F)c(F)c(C(=O)c2ccc3ncc(N4CCOCC4)nc3c2)c1)c1cccc(F)c1` [Compound C144, N-(3,4-difluoro-5-(3-morpholinoquinoxaline-6-carbonyl)phenyl)-3-fluorobenzamide], the results for the inhibition at 1 µM at BRAF, at KDR (VEGFR2) and at BRAF V600E were 70 to 89%, 70 to 89% and more than 89%, respectively. The IC50 with A375 cells was in the range of 1 to 5 µM; in the assay on A549 cells it was 2 to 5 µM.

The values above are taken from patent publication US10759766B2, “Certain chemical entities, compositions, and methods” (NeuPharma, Inc., priority 2011, dated 2020).
